# Data as given in publication PMC2213614 (The Journal of Cell Biology, 2008).
# Biological target: Sec3N (GST-Sec3N, N terminus of Sec3, aa 1-320) (Saccharomyces cerevisiae, UniProt P33332)
# Format: binding
# Settings: 25°C
# Sequence of Sec3N (GST-Sec3N, N terminus of Sec3, aa 1-320) (P33332 1-320 limits assumed): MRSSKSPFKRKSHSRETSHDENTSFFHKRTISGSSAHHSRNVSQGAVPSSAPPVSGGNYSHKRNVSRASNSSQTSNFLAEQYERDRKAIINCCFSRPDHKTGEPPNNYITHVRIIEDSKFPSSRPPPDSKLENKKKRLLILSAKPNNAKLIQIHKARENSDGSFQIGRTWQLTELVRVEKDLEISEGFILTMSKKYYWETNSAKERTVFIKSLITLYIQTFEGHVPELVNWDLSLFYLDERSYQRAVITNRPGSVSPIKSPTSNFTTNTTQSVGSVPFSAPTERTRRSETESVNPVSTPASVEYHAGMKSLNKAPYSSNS
substance,measurement,value
"phosphatidylinositol 4,5-bisphosphate",Kd,14.4 ± 4 µM
